Data from patent US11207312B2, “Metallo-beta-lactamase inhibitors and methods of use thereof” (priority 2017, dated 2021).

Columns and labels:
[1] = target: NDM-1 (Klebsiella pneumoniae, UniProt C7C422); assay: biochemical; format: biochemical; settings: CCF2-FA fluorescence assay, 2 hours at 25° C.
In short: (§1)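 In 100 mM phosphate pH 7 containing Tween-20 and ZnSO4, NDM-1 (1 pM), IMP-1 (2 pM) or VIM-1 (30 pM) hydrolysed 1.25 μM CCF2-FA over 2 hours at 25° C with inhibitor present. Readout was 405/460 nm fluorescence.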

[2] = target: IMP-1 (Serratia marcescens, UniProt P52699); assay: biochemical; settings: CCF2-FA fluorescence assay, 2 hours at 25° C.; read-out: IMP1 IC50
Chain of IMP-1 (P52699 whole entry, looked up, species assumed): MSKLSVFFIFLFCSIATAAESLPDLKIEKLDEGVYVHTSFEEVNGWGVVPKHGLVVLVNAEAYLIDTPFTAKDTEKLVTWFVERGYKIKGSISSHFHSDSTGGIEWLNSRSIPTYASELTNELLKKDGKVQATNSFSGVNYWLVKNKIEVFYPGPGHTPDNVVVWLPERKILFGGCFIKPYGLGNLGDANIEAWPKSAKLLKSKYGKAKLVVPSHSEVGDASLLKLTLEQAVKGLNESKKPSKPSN
In short: as §1

[3] = target: VIM-1 (Pseudomonas aeruginosa (strain ATCC 15692 / DSM 22644 / CIP 104116 / JCM 14847 / LMG 12228 / 1C / PRS 101 / PAO1), UniProt A0A0F7KYQ8); assay: biochemical; settings: CCF2-FA fluorescence assay, 2 hours at 25° C.; read-out: VIM1 IC50
In short: as §1

[4] = target: VIM-2 (Escherichia coli, UniProt Q5U7L7); assay: biochemical; settings: CCF2-FA fluorescence assay; read-out: VIM2 IC50
[5] = tested on: Escherichia coli expressing NDM-1 (CLB30016); format: cell-based; settings: with imipenem 1 μg/ml; 95% inhibition of bacterial growth
In short: (§2)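 Each strain, diluted 1:100 from saline suspension into 1.1× CAMHB, was combined with imipenem held at 1 μg/ml and graded inhibitor. Growth after 22–24 h at 35 °C was measured by absorbance, and the lowest concentration achieving 95% inhibition defined MITC95.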

[6] = tested on: Klebsiella pneumoniae expressing VIM-1 (IHMA599644); format: cell-based; settings: with imipenem 1 μg/ml; 95% inhibition of bacterial growth
In short: as §2

[7] = tested on: Serratia marcescens expressing IMP-1 (CL5741); format: cell-based; settings: with imipenem 1 μg/ml; 95% inhibition of bacterial growth
In short: as §2

[8] = tested on: P. aeruginosa MB9798 (efflux+, IMP-1 plasmid); settings: for MB9798 MITC95 P. aeruginosa uM Efflux WT: efflux + (MB9798) strain, imipenem at 2 μg/mL, in the presence of a class A, C, D serine β-lactamase inhibitor closely related to relebactam; for Efflux ratio: fold difference between efflux+ (MB9798) and efflux− (MB9799) strains
In short: (§3)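 PAO1-derived isogenic pair (oprD+, inducible AmpC), efflux+ MB5919 or efflux− MB5890 parent, carrying an electroporated IMP-1 plasmid from a clinical isolate. Microbroth MIC with fixed imipenem and/or ceftazidime (usually CLSI breakpoint) plus fixed class A/C inhibitor; MBL inhibitor serially titrated, concentration restoring susceptibility recorded.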

[9] = tested on: P. aeruginosa MB9799 (efflux-, IMP-1 plasmid); format: cell-based, Pseudomonas aeruginosa; settings: efflux − (MB9799) strain; imipenem at 2 μg/mL; in the presence of a class A, C, D serine β-lactamase inhibitor closely related to relebactam
In short: as §3

Chain of NDM-1 (C7C422 whole entry, looked up, species assumed): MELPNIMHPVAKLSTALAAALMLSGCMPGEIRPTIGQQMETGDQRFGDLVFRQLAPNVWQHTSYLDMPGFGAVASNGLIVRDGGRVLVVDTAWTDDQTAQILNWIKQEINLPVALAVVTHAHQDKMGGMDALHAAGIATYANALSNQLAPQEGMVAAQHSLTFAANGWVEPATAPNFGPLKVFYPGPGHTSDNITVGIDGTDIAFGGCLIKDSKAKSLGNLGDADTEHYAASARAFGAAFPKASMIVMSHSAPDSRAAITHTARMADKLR

NS(=O)(=O)c1c(S(=O)(=O)C2CNC2)ccc(N2CCC(O)CC2)c1-c1nnn[nH]1 [Example 31, 6-(azetidin-3-ylsulfonyl)-3-(4-hydroxypiperidin-1-yl)-2-(1H-tetrazol-5-yl)benzenesulfonamide]
IC50 [1]: 1.67 nM | IC50 [2]: 1.89 nM | IC50 [3]: 0.89 nM | IC50 [4]: 3.36 nM | CLB30016 E. coli MITC95 NDM [5]: 1.56 µM | IHMA599644 K. pneumoniae MITC95 VIM [6]: 3.13 µM | CL5741 S. marcescens MITC95 IMP [7]: 3.13 µM | MB9798 MITC95 P. aeruginosa uM Efflux WT [8]: 6.25 µM | Efflux ratio [8]: 4.00 | MB9799 MITC95 P. aeruginosa uM Efflux Mutant [9]: 1.56 µM

NS(=O)(=O)c1c(S(=O)(=O)C2CNC2)ccc(N2CC3C(CO)C3C2)c1-c1nnn[nH]1 (stereo not drawn) [Example 62, 6-(azetidin-3-ylsulfonyl)-3-[6-(hydroxymethyl)-3-azabicyclo[3.1.0]hex-3-yl]-2-(1H-tetrazol-5-yl)benzenesulfonamide]
IC50 [1]: 2.86 nM | IC50 [2]: 4.89 nM | IC50 [3]: 3.07 nM | IC50 [4]: 10.5 nM | CLB30016 E. coli MITC95 NDM [5]: 1.56 µM | IHMA599644 K. pneumoniae MITC95 VIM [6]: 6.25 µM | CL5741 S. marcescens MITC95 IMP [7]: 3.13 µM | MB9798 MITC95 P. aeruginosa uM Efflux WT [8]: 50.00 µM | Efflux ratio [8]: 31.99 | MB9799 MITC95 P. aeruginosa uM Efflux Mutant [9]: 1.56 µM

NC[C@@H](O)CNS(=O)(=O)c1ccc(N2CCC(n3ccnc3)CC2)c(-c2nnn[nH]2)c1S(N)(=O)=O [Example 174, (R)-4-(4-(1H-imidazol-1-yl)piperidin-1-yl)-N1-(3-amino-2-hydroxypropyl)-3-(2H-tetrazol-5-yl)benzene-1,2-disulfonamide]
IC50 [1]: 0.69 nM | IC50 [2]: 0.36 nM | IC50 [3]: 0.07 nM | IC50 [4]: 0.22 nM | CLB30016 E. coli MITC95 NDM [5]: 0.78 µM | IHMA599644 K. pneumoniae MITC95 VIM [6]: 3.13 µM | CL5741 S. marcescens MITC95 IMP [7]: 0.78 µM | MB9798 MITC95 P. aeruginosa uM Efflux WT [8]: 3.13 µM | Efflux ratio [8]: 2.00 | MB9799 MITC95 P. aeruginosa uM Efflux Mutant [9]: 1.56 µM

NC(=O)[C@H]1CN(c2ccc(S(=O)(=O)N[C@@H]3CCNC3)c(S(N)(=O)=O)c2-c2nn[nH]n2)CCN1 [Example 197, (R)-4-(4-(N-((R)-pyrrolidin-3-yl)sulfamoyl)-3-sulfamoyl-2-(2H-tetrazol-5-yl)phenyl)piperazine-2-carboxamide]
IC50 [1]: 1.44 nM | IC50 [2]: 9.95 nM | IC50 [3]: 0.74 nM | IC50 [4]: 1.89 nM | CLB30016 E. coli MITC95 NDM [5]: 0.29 µM | IHMA599644 K. pneumoniae MITC95 VIM [6]: 1.56 µM | CL5741 S. marcescens MITC95 IMP [7]: 0.39 µM | MB9798 MITC95 P. aeruginosa uM Efflux WT [8]: 3.13 µM | Efflux ratio [8]: 2.00 | MB9799 MITC95 P. aeruginosa uM Efflux Mutant [9]: 1.56 µM

NS(=O)(=O)c1c(S(=O)(=O)N[C@@H]2CCNC2)ccc(N2CCCN(CCO)CC2)c1-c1nnn[nH]1 [Example 69, 4-[4-(2-hydroxyethyl)-1,4-diazepan-1-yl]-N1-[(3R)-pyrrolidin-3-yl]-3-(1H-tetrazol-5-yl)benzene-1,2-disulfonamide]
IC50 [1]: 16.2 nM | IC50 [2]: 29.6 nM | IC50 [3]: 1.6 nM | IC50 [4]: 13.3 nM | CLB30016 E. coli MITC95 NDM [5]: 0.78 µM | IHMA599644 K. pneumoniae MITC95 VIM [6]: 1.56 µM | CL5741 S. marcescens MITC95 IMP [7]: 3.13 µM | MB9798 MITC95 P. aeruginosa uM Efflux WT [8]: 12.50 µM | Efflux ratio [8]: 4.00 | MB9799 MITC95 P. aeruginosa uM Efflux Mutant [9]: 3.13 µM

NCC(CN)NS(=O)(=O)c1ccc(N2CCC(CO)CC2)c(-c2nnn[nH]2)c1S(N)(=O)=O [Example 45, N1-(1,3-diaminopropan-2-yl)-4-(4-(hydroxymethyl)piperidin-1-yl)-3-(1H-tetrazol-5-yl)benzene-1,2-disulfonamide]
IC50 [1]: 0.27 nM | IC50 [2]: 0.52 nM | IC50 [3]: 0.23 nM | IC50 [4]: 0.74 nM | CLB30016 E. coli MITC95 NDM [5]: 1.56 µM | IHMA599644 K. pneumoniae MITC95 VIM [6]: 3.13 µM | CL5741 S. marcescens MITC95 IMP [7]: 3.13 µM | MB9798 MITC95 P. aeruginosa uM Efflux WT [8]: 1.56 µM | Efflux ratio [8]: 1.00 | MB9799 MITC95 P. aeruginosa uM Efflux Mutant [9]: 1.56 µM
